Reference: patent US9476870B2, “Methods and agents for screening for compounds capable of modulating gene expression” (PTC Therapeutics, Inc., priority 2003, dated 2016)

Assays:
[1] = tested on: FGF-2 and IGF-1; assay: ELISA assays for expression of angiogenesis factors in HeLa cells; format: cell-based; conditions: Homo sapiens, read-out: EC50 for inhibition of all these cytokines
Experimental: Compounds that target multiple angiogenesis factors (including VEGF) for the treatment of cancers are also identifiable. Several targets are used for these purposes, including TNF-α, FGF-2, G-CSF, IGF-1, PDGF, and HIF-1α. ELISA assays analyze levels of expression of these factors using commercially available kits from R&D Systems (Minneapolis, Minn.). UTR-specific HTS identified compounds are tested for their ability to inhibit the expression of a subset of these proteins, including FGF-2 and IGF-1 in HeLa cells.

[2] = tested on: VEGF UTRs; assay: luciferase reporter inhibition in B9 (VEGF 5' and 3' UTRs) versus B12 (control UTRs) stable cell lines; format: cell-based, human; conditions: about 10^-1 nM to about 10^4 nM
Experimental: A monocistronic reporter construct (pLuc/vegf5′+3′UTR) is under the transcriptional control of the CMV promoter and contains the VEGF 5′ UTR driving the luciferase reporter upstream of the VEGF 3′UTR. Stable cell lines are generated by transfecting 293 cells with the pLuc/vegf5′+3′UTR construct. A stable cell line is cultured under hygromycin B selection to create clonal cell lines consistent with protocols well known in the art. After two weeks of selection, clonal cell lines are screened for luciferase activity. The luciferase activity of several clonal cell lines (hereafter “Clones”) are compared and normalized against total protein content. Clones are maintained under hygromycin B selection for more than three months with intermittent monitoring of luciferase activity. Clones are stable and maintain a high level of luciferase expression. Many Clones, for example, about twenty, may be compared to each other with respect to luciferase activity. […] Particular parameters for Clones are studied prior to selection for use in post-transcriptional, high-throughput screening (HTS). […]
Chemical libraries in excess of 150,000 compounds are screened by HTS with a Clone containing the monocistronic reporter construct, pLuc/vegf5′+3′UTR. […] Data is analyzed as a normal distribution, which is apparent from graphical and statistical analysis of skewness and kurtosis. […]

EC50 [1]: 200 to 2000 nM
SMILES: COc1ccc(C[C@H](N)C(=O)N[C@H]2[C@@H](O)[C@H](n3cnc4c(N(C)C)ncnc43)O[C@@H]2CO)cc1 [puromycin]
difference in inhibition of luciferase expression between B9 and B12 cell lines [2]: No difference
